Patent US8258134B2, “Pyridazinone glucokinase activators” (Hoffmann-La Roche Inc., priority 2008, dated 2012)

Biological target: T1, Recombinant human liver GK1 (GST-GK) (Homo sapiens, UniProt P35557)
T1 construct: made in house; host or cells: E. coli
T1 sequence (P35557 1-466 isoform P35557-2): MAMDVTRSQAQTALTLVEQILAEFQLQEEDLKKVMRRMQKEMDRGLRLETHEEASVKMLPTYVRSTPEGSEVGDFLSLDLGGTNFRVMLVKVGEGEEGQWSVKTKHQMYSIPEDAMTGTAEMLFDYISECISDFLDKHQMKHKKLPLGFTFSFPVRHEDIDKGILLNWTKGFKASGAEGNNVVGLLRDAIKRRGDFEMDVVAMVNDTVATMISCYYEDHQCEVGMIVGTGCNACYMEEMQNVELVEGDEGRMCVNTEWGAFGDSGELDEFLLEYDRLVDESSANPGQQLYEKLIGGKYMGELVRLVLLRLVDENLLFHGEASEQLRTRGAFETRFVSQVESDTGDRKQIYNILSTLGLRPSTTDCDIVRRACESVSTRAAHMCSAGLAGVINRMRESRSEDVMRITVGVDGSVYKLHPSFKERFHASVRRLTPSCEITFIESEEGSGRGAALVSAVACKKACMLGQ
Assay: Glucokinase in vitro assay (G6PDH-coupled NADH generation, OD340)
Assay type: biochemical
Settings: 5 mM D-glucose, 30° C., pH 7.1, 10% DMSO
Method: Glucokinase In Vitro Assay Protocol: Glucokinase (GK) was assayed by coupling the production of glucose-6-phosphate to the generation of NADH with glucose-6-phosphate dehydrogenase (G6PDH, 0.75-1 k units/mg; Boehringer Mannheim, Indianapolis, Ind.) from Leuconostoc mesenteroides as the coupling enzyme (Scheme 2):
Recombinant human liver GK1 was expressed in E. coli as a glutathione S-transferase fusion protein (GST-GK) [Liang et al, 1995] and was purified by chromatography over a glutathione-Sepharose 4B affinity column using the procedure provided by the manufacturer (Amersham Pharmacia Biotech, Piscataway, N.J.).
The assay was conducted at 30° C. in a flat bottom 96-well tissue culture plate from Costar (Cambridge, Mass.) with a final incubation volume of 120 μL. The incubation reaction contained the following: 25 mM Hepes buffer (pH 7.1), 25 mM KCl, 5 mM D-glucose, 1 mM ATP, 1.8 mM NAD, 2 mM MgCl2, 1 μM sorbitol-6-phosphate, 1 mM dithiothreitol, test drug or 10% DMSO, ˜7 units/ml G6PDH, and GK (see below). All organic reagents were >98% pure and were from Boehringer Mannheim with the exceptions of D-glucose and Hepes which were from Sigma Chemical Co, St Louis, Mo. Test compounds were dissolved in DMSO and were added to the incubation reaction minus GST-GK in a volume of 12 μL to yield a final DMSO concentration of 10%. This mix was pre-incubated in the temperature controlled chamber of a SPECTRAmax 250 microplate spectrophotometer (Molecular Devices Corporation, Sunnyvale, Calif.) for 10 minutes to allow temperature equilibrium and then the reaction was started by the addition of 20 μL GST-GK.
After addition of enzyme, the increase in optical density (OD) at 340 nm was monitored spectrophotometrically to determine the rate of change (OD340 per min). The GK activity (OD340/min) in control wells (10% DMSO minus GK activators) was compared with the activity in wells containing test GK activators, and the concentration of activator that produced a 50% increase in the activity of GK, i.e., the SC1.5, was calculated. The table below provides the in vitro glucokinase activity for the compounds in the Examples: […]

Compared with `O=C(Nc1cnccn1)C(CC1CCCC1)n1ncc(Oc2ccccc2C(F)(F)F)cc1=O` (stereo not shown) [Example 76, 3-Cyclopentyl-2-[6-oxo-4-(2-trifluoromethyl-phenoxy)-6H-pyridazin-1-yl]-N-pyrazin-2-yl-propionamide], `COC(=O)c1cc(NC(=O)C(CC2CCCC2)n2ncc(Oc3ccccc3C(F)(F)F)cc2=O)nn1C` (stereo not shown) [Example 16, 5-{3-Cyclopentyl-2-[6-oxo-4-(2-trifluoromethyl-phenoxy)-6H-pyridazin-1-yl]-propionylamino}-2-methyl-2H-pyrazole-3-carboxylic acid methyl ester] is 12-fold higher in “SC1.5 average (concentration of activator that produced a 50% increase in the activity of GK)” value: 0.376 µM for the first, 4.548 µM for the second.

`CC(C)(O)Cn1ccc(NC(=O)C(CC2CCCC2)n2ncc(Oc3ccccc3C3CCCCC3)cc2=O)n1` (stereo not shown) [Example 21, 2-[4-(2-Cyclohexyl-phenoxy)-6-oxo-6H-pyridazin-1-yl]-3-cyclopentyl-N-[1-(2-hydroxy-2-methyl-propyl)-1H-pyrazol-3-yl]-propionamide] and `CC(C)(O)Cn1ccc(NC(=O)C(CC2CCCC2)n2ncc(Oc3ccc(F)cc3F)cc2=O)n1` (stereo not shown) [Example 32, 3-Cyclopentyl-2-[4-(2,4-difluoro-phenoxy)-6-oxo-6H-pyridazin-1-yl]-N-[1-(2-hydroxy-2-methyl-propyl)-1H-pyrazol-3-yl]-propionamide] are within 1.5-fold of each other in “SC1.5 average (concentration of activator that produced a 50% increase in the activity of GK)” value: 0.873 µM for the first, 0.745 µM for the second.

First: O=C(O)c1ccc(NC(=O)[C@H](CC2CCCC2)n2ncc(Oc3ccccc3F)cc2=O)nc1 [Example 75A, 6-{(S)-3-Cyclopentyl-2-[4-(2-fluoro-phenoxy)-6-oxo-6H-pyridazin-1-yl]-propionylamino}-nicotinic acid]
Second: O=C(Nc1ccn(C[C@@H](O)CO)n1)C(CC1CCCC1)n1ncc(Oc2cccc(Cl)c2F)cc1=O (stereo partly drawn) [Example 104, 2-[4-(3-Chloro-2-fluoro-phenoxy)-6-oxo-6H-pyridazin-1-yl]-3-cyclopentyl-N-[1-((R)-2,3-dihydroxy-propyl)-1H-pyrazol-3-yl]-propionamide]
The “SC1.5 average (concentration of activator that produced a 50% increase in the activity of GK)” value of the first is 4.2-fold lower: 0.033 µM for the first, 0.139 µM for the second.

First: CCC(CC)CC(C(=O)Nc1ccn(CC(C)(C)O)n1)n1ncc(Oc2c(F)cccc2F)cc1=O (stereo not shown) [Example 52, 2-[4-(2,6-Difluoro-phenoxy)-6-oxo-6H-pyridazin-1-yl]-4-ethyl-hexanoic acid [1-(2-hydroxy-2-methyl-propyl)-1H-pyrazol-3-yl]-amide]
Second: CC(C)CC(C(=O)Nc1ccn(C[C@@H](O)CO)n1)n1ncc(Oc2cccc(C(F)(F)F)c2Cl)cc1=O (stereo partly drawn) [Example 126, 2-[4-(2-Chloro-3-trifluoromethyl-phenoxy)-6-oxo-6H-pyridazin-1-yl]-4-methyl-pentanoic acid [1-((R)-2,3-dihydroxy-propyl)-1H-pyrazol-3-yl]-amide]
The “SC1.5 average (concentration of activator that produced a 50% increase in the activity of GK)” value of the first is 2.7-fold lower: 0.456 µM for the first, 1.221 µM for the second.

Going from `CC(C)CC(C(=O)Nc1ccn(C[C@@H](O)CO)n1)n1ncc(Oc2ccccc2Cl)cc1=O` (stereo partly drawn) [Example 137, 2-[4-(2-Chloro-phenoxy)-6-oxo-6H-pyridazin-1-yl]-4-methyl-pentanoic acid [1-((R)-2,3-dihydroxy-propyl)-1H-pyrazol-3-yl]-amide] to `CN(c1ccccc1)c1cnn(C(CC2CCCC2)C(=O)Nc2ccn(CC(C)(C)O)n2)c(=O)c1` (stereo not shown) [Example 77, 3-Cyclopentyl-N-[1-(2-hydroxy-2-methyl-propyl)-1H-pyrazol-3-yl]-2-[4-(methyl-phenyl-amino)-6-oxo-6H-pyridazin-1-yl]-propionamide], the “SC1.5 average (concentration of activator that produced a 50% increase in the activity of GK)” value rises from 0.731 µM to 21.07 µM (29-fold).
